From article PMC9687805 (Biomolecules, 2022)
“And” between values parts separate entries of the source, which are not always exact repeats. Equal entries are not always repeated. Where two headings read alike, the source gives them in different places.

Columns and labels:
Human erythrocyte AChE = biological target: T1, Human erythrocyte AChE (Homo sapiens, UniProt P22303); assay: biochemical; conditions: for inhibition at 20 µM: read-out: Inhibitory activity against AChE, % inhibition at 20 μM; for IC50: human erythrocyte AChE, 5 min incubation, 25 °C, pH 7.5, read-out: Inhibitory activity against AChE, IC50
T1 construct: purchased Sigma-Aldrich; host or cells: human erythrocytes
T1 sequence (P22303 32-617 isoform P22303-2 limits assumed): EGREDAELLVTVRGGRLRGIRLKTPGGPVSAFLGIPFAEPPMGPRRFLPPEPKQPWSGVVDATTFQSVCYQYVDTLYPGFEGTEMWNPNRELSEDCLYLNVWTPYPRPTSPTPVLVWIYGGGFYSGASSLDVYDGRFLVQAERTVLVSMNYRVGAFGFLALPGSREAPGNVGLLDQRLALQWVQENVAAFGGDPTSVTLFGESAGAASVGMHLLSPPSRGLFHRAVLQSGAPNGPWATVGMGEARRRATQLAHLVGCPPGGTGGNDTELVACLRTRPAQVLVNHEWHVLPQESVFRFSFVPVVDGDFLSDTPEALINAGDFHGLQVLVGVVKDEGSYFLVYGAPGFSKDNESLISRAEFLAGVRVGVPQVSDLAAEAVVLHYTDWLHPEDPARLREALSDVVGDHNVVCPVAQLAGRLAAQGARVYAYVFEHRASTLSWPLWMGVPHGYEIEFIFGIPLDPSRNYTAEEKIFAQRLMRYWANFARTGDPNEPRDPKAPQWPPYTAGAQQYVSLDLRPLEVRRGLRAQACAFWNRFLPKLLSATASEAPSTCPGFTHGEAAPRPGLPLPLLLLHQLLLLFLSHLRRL
Procedure: (§1) The assay solution consisted of 0.1 M K/Na phosphate buffer pH 7.5, 25 °C, 0.33 mM DTNB, 0.02 unit/mL AChE or BChE, and 1 mM substrate (ATCh or BTCh, respectively). Reagent blanks consisted of reaction mixtures without substrates.
(§2) Each experiment was performed in triplicate.

equine serum BChE = biological target: T2, equine serum BChE (Equus caballus, UniProt P81908); assay: biochemical; conditions: mean ± SEM, n = 3; for IC50: equine serum BChE, 5 min incubation, 25 °C, pH 7.5, read-out: Inhibitory activity against BChE, IC50; for inhibition at 20 µM: read-out: Inhibitory activity against BChE, % inhibition at 20 μM, compound 20 μM, n.a. = not active
T2 construct: purchased Sigma-Aldrich; host or cells: equine serum
T2 sequence (P81908 whole entry): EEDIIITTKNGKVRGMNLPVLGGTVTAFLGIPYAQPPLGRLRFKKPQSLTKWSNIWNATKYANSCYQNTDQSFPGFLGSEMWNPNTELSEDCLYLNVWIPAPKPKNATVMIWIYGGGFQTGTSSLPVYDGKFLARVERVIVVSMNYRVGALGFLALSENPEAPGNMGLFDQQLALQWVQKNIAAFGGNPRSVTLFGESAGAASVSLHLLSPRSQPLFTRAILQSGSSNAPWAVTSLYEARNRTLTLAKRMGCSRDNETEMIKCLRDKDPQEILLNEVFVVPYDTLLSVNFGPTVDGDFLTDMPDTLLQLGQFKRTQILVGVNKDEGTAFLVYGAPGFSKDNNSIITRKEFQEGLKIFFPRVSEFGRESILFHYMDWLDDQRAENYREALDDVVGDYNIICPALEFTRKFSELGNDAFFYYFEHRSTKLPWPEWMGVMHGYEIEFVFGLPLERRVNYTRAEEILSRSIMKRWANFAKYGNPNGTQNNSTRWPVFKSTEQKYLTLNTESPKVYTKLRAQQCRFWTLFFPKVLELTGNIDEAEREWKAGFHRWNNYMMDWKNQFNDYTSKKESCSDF
Procedure: as §1, §2

[1] = Ferric reducing antioxidant power (FRAP) assay; conditions: Trolox equivalents; n=3, 1 h, 37 °C; mean ± SEM
Procedure: The FRAP (Ferric Reducing Antioxidant Power) assay measures the ability of antioxidants to reduce the ferric 2,4,6-tripyridyl-s-triazine complex [Fe(TPTZ)2]^3+ to the intensely blue-colored ferrous complex [Fe(TPTZ)2]^2+ with an absorption maximum at λ = 593 nm. The reducing ability of a compound is an indicator of its potential antioxidant activity.
The ferric reducing ability of the compounds was determined by a previously described method as a microplate-adapted version described in [42]. 2,4,6-tris(pyridin-2-yl)-1,3,5-triazine (TPTZ), FeCl3·6H2O, Trolox, ascorbic acid and DMSO were obtained from Sigma-Aldrich Chemical Co (St. Louis, MO, USA). The FRAP reagent was prepared by mixing acetate buffer (0.3 M, pH 3.6), TPTZ (10 mM in 40 mM HCl) and FeCl3·6H2O (20 mM in distilled water) in a ratio of 10:1:1 immediately before use. Compounds were dissolved in DMSO and tested in the concentration range of 1×10^−6–1×10^−4 M. The solvent content in the reaction mixture was 4% (v/v). The test compounds (10 µL) were added to the FRAP reagent solution (240 µL) and mixed thoroughly. The reaction was carried out at 37 °C in the dark, the incubation time was 1 h. The absorbance at 600 nm was monitored spectrophotometrically by a FLUOStar OPTIMA microplate reader (BMG Labtech, Germany) at 37 °C. Trolox was used as a standard antioxidant, ascorbic acid as a reference compound. Values were obtained from four replicates of each sample and three independent experiments.
The ferric reducing ability of compounds was expressed as TE units (antioxidant activity in Trolox equivalent) with the values calculated as the ratio of the concentrations of Trolox and the test compound resulting in the same effect.

[2] = ABTS radical cation scavenging activity assay; design: key to ABTS•+-scavenging activity, TEAC: ratio of slopes, tested compound vs Trolox (Trolox = 1); conditions: n=3, 1 h, 30 °C; for ABTS•+-scavenging activity, TEAC: Trolox equivalent antioxidant capacity, mean ± SEM; for IC50: concentration for 50% reduction of ABTS radical cation
Procedure: Radical scavenging activity of the compounds was evaluated by the ABTS radical cation (ABTS^•+) scavenging assay showing the ability of the compounds to decolorize the ABTS^•+ solution [86] with some modifications. Trolox was used as the antioxidant standard; ascorbic acid was used as the comparison compound. All tested compounds and standards were dissolved in DMSO.
The solution of ABTS^•+ was produced by mixing 7 mM ABTS aqueous solution with 2.45 mM potassium persulfate aqueous solution in equal quantities and allowing them to react for 12–16 h at room temperature in the dark. Radical scavenging capacity of the compounds was analyzed by mixing 10 µL of compound with 240 µL of ABTS^•+ working solution in ethanol (100 µM final concentration), and after 1 h of incubation at 30 °C the decrease in absorbance was measured spectrophotometrically at 734 nm using a Bio-Rad xMark microplate UV/VIS spectrophotometer (Bio-Rad, Hercules, CA, USA). The compounds were tested in the concentration range 5 × 10^−7–1 × 10^−4 M. Ethanol blanks were run in each assay. Values were obtained from five replicates of each sample and three independent experiments.
Antioxidant activity was reported as Trolox equivalent antioxidant capacity (TEAC values), consisting of the ratio between the slopes obtained from the linear correlation for concentrations of the tested compounds and Trolox with absorbance of ABTS radical. […] The calculations were carried out using Origin 6.1 for Windows (OriginLab, Northampton, MA, USA). Results are presented as mean ± SEM calculated using GraphPad Prism version 6.05 for Windows, GraphPad Software (San Diego, CA, USA).

[3] = Metal-chelating properties by UV-Vis spectrometry in acetonitrile; type: physicochemical; conditions: compound 40 µM, metal 40 µM, 25 °C, red shift of absorbance
Procedure: The complexing studies were made in acetonitrile at 25 °C using a UV–vis spectrophotometer Shimadzu UV-2600 (Shimadzu Corporation, Kyoto, Japan) with wavelength ranging from 190 to 600 nm. Solutions (200 µM in acetonitrile) of the following metals compounds were prepared in volumetric flasks: FeCl2·4H2O (99%, Acros Organics by Thermo Fisher Scientific (Kandel, Germany)), CuCl2 (98%, Alfa Aesar by Thermo Fisher Scientific (Kandel, Germany)), or Zn(NO3)2·6H2O (98%, Alfa Aesar by Thermo Fisher Scientific (Kandel, Germany). Solutions of the test compounds were also prepared in acetonitrile at 400 µM concentrations. To a mixture of 0.5 mL test compound solution (40 μM final concentration) and 3.5 mL acetonitrile, 1 mL of the metal solution (CuCl2, FeCl2·4H2O, or Zn(NO3)2·6H2O; 40 µM final concentration) was added. The solution was incubated at 25 °C for 30 min and then the absorption spectra were recorded at 25 °C in a 1 cm quartz cell. The control was prepared by mixing 0.5 mL tested compound solution and 4.5 mL acetonitrile.

EeAChE PAS = biological target: T3, EeAChE PAS (Electrophorus electricus, UniProt O42275); assay: biochemical; type: binding; conditions: 0.25 h; compound 20 μM, EeAChE 7 μM, propidium iodide 8 μM; n.a. = not active; read-out: % Displacement of Propidium from the EeAChE PAS at 20 μM
T3 construct: purchased Sigma-Aldrich type VI-S; host or cells: electric eel
T3 sequence (O42275 24-633): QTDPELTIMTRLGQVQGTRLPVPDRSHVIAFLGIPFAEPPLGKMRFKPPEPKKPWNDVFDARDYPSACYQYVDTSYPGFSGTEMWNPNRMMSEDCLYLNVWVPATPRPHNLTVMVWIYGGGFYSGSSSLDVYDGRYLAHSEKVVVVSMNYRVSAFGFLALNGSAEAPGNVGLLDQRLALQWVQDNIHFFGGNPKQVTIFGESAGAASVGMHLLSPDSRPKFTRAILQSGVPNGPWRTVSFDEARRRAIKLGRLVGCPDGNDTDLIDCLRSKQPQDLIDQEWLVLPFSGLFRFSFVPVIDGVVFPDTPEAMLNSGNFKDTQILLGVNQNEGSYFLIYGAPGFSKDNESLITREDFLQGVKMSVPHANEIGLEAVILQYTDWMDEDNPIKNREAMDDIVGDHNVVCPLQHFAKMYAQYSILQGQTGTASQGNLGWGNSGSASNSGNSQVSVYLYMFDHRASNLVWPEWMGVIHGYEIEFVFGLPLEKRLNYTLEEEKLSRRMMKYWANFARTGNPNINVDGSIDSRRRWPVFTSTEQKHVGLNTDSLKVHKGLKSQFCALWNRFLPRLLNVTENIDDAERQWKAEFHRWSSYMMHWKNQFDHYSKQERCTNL
Procedure: Electrophorus electricus (EeAChE) (electric eel, type VI-S, lyophilized powder, Sigma-Aldrich, St. Louis, MO, USA) was used owing to its high degree of purification, high activity, and lower cost than human AChE (hAChE). […] To determine the degree of displacement (% displacement) of propidium from the PAS of AChE, EeAChE (final concentration, 7 μM) was incubated with the test compound at a concentration of 20 μM in 1 mM Tris-HCl buffer pH 8.0, 25 °C, for 15 min. Then, propidium iodide solution (final concentration, 8 μM) was added, the samples were incubated for 15 min, and the fluorescence spectrum (530 nm (excitation) and 600 nm (emission)) was taken. […] The blank contained propidium iodide of the same concentration in 1 mM Tris-HCl buffer, pH 8.0 at 25 °C. The measurements were carried out in triplicate on a FLUOStar Optima microplate reader (LabTech, Ortenberg, Germany), and the results were calculated by the following formula:% Displacement = 100 − (IFAChE + Propidium + inhibitor / IFAChE + Propidium) × 100 (1) where IFAChE + Propidium is the fluorescence intensity of the propidium associated with AChE in the absence of the test compound (taken as 100%), and IFAChE + Propidium + inhibitor is the fluorescence intensity of the propidium associated with AChE in the presence of the test compound.

porcine liver CES = assay: CES inhibition, 4-nitrophenyl acetate hydrolysis; conditions: compound 20 μM; mean ± SEM, n = 3; n.a. = not active
Procedure: Final enzyme and substrate (4-nitrophenyl acetate) concentrations were 0.02 unit/mL and 1 mM, respectively. Assays were carried out with a blank containing all constituents except porcine CES to assess non-enzymatic hydrolysis. Measurements were performed with a FLUOStar Optima microplate reader (BMG Labtech, Ortenberg, Germany). Compounds were dissolved in DMSO; the incubation mixture contained 2% (v/v) solvent. The primary evaluation of the inhibitory activity of the compounds was performed by determining the degree of the enzyme inhibition at a compound concentration of 20 µM. For this, a sample of the corresponding enzyme was incubated with the test compound for 5 min; then the enzyme residual activity was determined. Each experiment was performed in triplicate. […] Substrate was then added and residual enzyme activity relative to an inhibitor-free control was measured using a FLUOStar Optima microplate reader.

[4] = compound 20 μM, mean ± SEM, n = 3, n.a. = not active

SMILES	inhibition at 20 µM (Human erythrocyte AChE)	IC50 (equine serum BChE)	FRAP (Fe3+-reducing activity), TE [1]	ABTS•+-scavenging activity, TEAC [2]	IC50 [2]	inhibition at 20 µM (Human erythrocyte AChE; [4])	inhibition at 20 µM (equine serum BChE)	IC50 (Human erythrocyte AChE; mean ± SEM, n = 3)	Metal-chelating ability for Cu2+, Fe2+ and Zn2+ [3]	inhibition at 20 µM (EeAChE PAS)	Inhibitory activity against CES, % inhibition at 20 μM (porcine liver CES)
CCCCCCN/C(C)=C(\N=N\c1ccc(C)cc1)C(C)=O [2a, (3Z)-4-(Hexylamino)-3-[(E)-(4-methylphenyl)diazenyl]pent-3-en-2-one]	22.9 ± 1.2%	18100 ± 800 nM	0.57 ± 0.02	0.94 ± 0.03	20300 ± 1600 nM	–	–	–	–	–	–
CCCCCCN/C(C)=C(\N=Nc1ccc(C)cc1)C(=O)c1ccccc1 [2b, (3Z)-3-(Hexylamino)-2-[(4-methylphenyl)diazenyl]-1-phenylbut-2-en-1-one]	–	–	0.52 ± 0.02	0.98 ± 0.03	18900 ± 1200 nM	12.5 ± 0.6%	25 ± 2%	–	–	–	–
CCCCCCN/C(C)=C(\N=N\c1ccc(C)cc1)C(=O)C(F)(F)F [2c, (3Z)-4-(Hexylamino)-3-[(E)-(4-methylphenyl)diazenyl]-1,1,1-trifluoropent-3-en-2-one]	–	–	not active	1.00 ± 0.04	19900 ± 1400 nM	14.7 ± 3.2%	35.3 ± 2.7%	–	–	–	–
CC(=O)C(/N=N/c1ccc(C)cc1)=C(\C)NCCCCNc1c2c(nc3ccccc13)CCCC2 [6a]	–	139 ± 17 nM	0.37 ± 0.06	1.00 ± 0.03	19500 ± 1100 nM	–	–	1390 ± 40 nM	metal-chelating ability	15.6 ± 1.2%	23.3 ± 0.4%
CC(=O)C(/N=N/c1ccc(C)cc1)=C(\C)NCCCCCCCCNc1c2c(nc3ccccc13)CCCC2 [6c]	–	54 nM and 54.3 nM	0.49 ± 0.05	0.80 ± 0.03	27500 ± 1600 nM	–	–	270 nM and 272 nM	–	17.8 ± 1.4%	30.1 ± 1.2%
C/C(NCCCCNc1c2c(nc3ccccc13)CCCC2)=C(/N=N/c1ccc(C)cc1)C(=O)c1ccccc1 [7a]	–	36 nM and 35.9 nM	0.43 ± 0.04	0.90 ± 0.04	22300 ± 1900 nM	–	–	889 ± 7 nM	metal-chelating ability	11.9 ± 0.8%	31.2 ± 2.9%
C/C(NCCCCCCNc1c2c(nc3ccccc13)CCCC2)=C(/N=N/c1ccc(C)cc1)C(=O)c1ccccc1 [7b]	–	47 ± 3.8 nM	0.51 ± 0.06	0.91 ± 0.03	21800 ± 1600 nM	–	–	380 ± 3 nM	–	15.5 ± 1.3%	33.2 ± 1.7%
C/C(NCCCCCCCCNc1c2c(nc3ccccc13)CCCC2)=C(/N=N/c1ccc(C)cc1)C(=O)c1ccccc1 [7c]	–	74.5 ± 6 nM	0.58 ± 0.03	0.92 ± 0.03	21800 ± 1600 nM	–	–	250 nM and 249 nM	–	14.1 ± 1.1%	23.4 ± 2.2%
C/C(NCCCCNc1c2c(nc3ccccc13)CCCC2)=C(/N=N/c1ccc(C)cc1)C(=O)C(F)(F)F [8a]	–	246 ± 16 nM	0.06 ± 0.01	1.13 ± 0.05	17700 ± 1300 nM	–	–	1690 ± 50 nM	metal-chelating ability	13.7 ± 1.2%	28.6 ± 4.0%
C/C(NCCCCCCNc1c2c(nc3ccccc13)CCCC2)=C(/N=N/c1ccc(C)cc1)C(=O)C(F)(F)F [8b]	–	125 ± 6 nM	0.11 ± 0.03	1.00 ± 0.04	17900 ± 600 nM	–	–	280 nM and 276 nM	–	14.4 ± 1.3%	19.9 ± 2.9%
C/C(NCCCCCCCCNc1c2c(nc3ccccc13)CCCC2)=C(/N=N/c1ccc(C)cc1)C(=O)C(F)(F)F [8c]	–	98.5 ± 1.3 nM	0.12 ± 0.01	0.95 ± 0.03	19400 ± 1300 nM	–	–	240 nM and 241 nM	–	16.2 ± 1.4%	12.2 ± 1.7%
O=C1O[C@H]([C@@H](O)CO)C(O)=C1O [Ascorbic acid, ascorbic acid, reference compound]	–	–	1.23 ± 0.11	0.96 ± 0.02	22600 ± 1300 nM	–	–	–	–	–	–
Cc1c(C)c2c(c(C)c1O)CCC(C)(C(=O)O)O2 (centres unmarked) [Trolox, 6-hydroxy-2,5,7,8-tetramethylchroman-2-carboxylic acid, reference compound]	–	–	1.0	1.0	19700 ± 800 nM	–	–	–	–	–	–
